Measurements: patent US5753648A, “Tricyclic benzazepine vasopressin antagonists” (American Cyanamid Company, priority 1996, dated 1998)
Where two headings read alike, the source gives them in different places.

What was measured:
[1] = target: T1, oxytocin receptors (Rattus norvegicus, UniProt P70536); assay: Oxytocin Receptor Binding; conditions: for IC50: rat uterine membranes, [3H]oxytocin
T1 sequence (P70536 1-388): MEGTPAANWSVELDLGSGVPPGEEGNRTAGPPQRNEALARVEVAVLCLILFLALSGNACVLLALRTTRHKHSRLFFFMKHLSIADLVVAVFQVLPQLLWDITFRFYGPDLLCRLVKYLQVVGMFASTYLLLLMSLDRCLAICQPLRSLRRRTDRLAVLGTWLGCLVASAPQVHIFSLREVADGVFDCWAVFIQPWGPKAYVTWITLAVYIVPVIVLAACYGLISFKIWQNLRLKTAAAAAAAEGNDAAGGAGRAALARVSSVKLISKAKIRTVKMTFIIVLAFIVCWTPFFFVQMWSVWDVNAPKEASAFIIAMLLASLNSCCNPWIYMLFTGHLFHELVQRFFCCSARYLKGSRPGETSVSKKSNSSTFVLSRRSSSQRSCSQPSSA
Procedure: Female Sprague-Dawley rats weighing approximately 200-250 g are injected intramuscularly (i.m.) with 0.3 mg/kg of body weight of diethylstilbestrol (DES). The rats are sacrificed 18 hours later under pentobarbital anesthesia. The uteri are dissected out, cleaned of fat and connective tissues and rinsed in 50 ml of normal saline. The tissue pooled from six rats is homogenized in 50 ml of 0.01 mM Tris.HCl, containing 0.5 mM dithiothreitol and 1.0 mM EDTA, adjusted to pH 7.4, using a polytron at setting 6 with three passes of 10 sec each. The homogenate is passed through two (2) layers of cheesecloth and the filtrate centrifuged at 1000×g for 10 min. The clear supernatant is removed and recentrifuged at 165,000×g for 30 min. The resulting pellet containing the oxytocin receptors is resuspended in 50.0 mM Tris.HCl containing 5.0 mM MgCl2 at pH 7.4, to give a protein concentration of 2.5 mg/ml of tissue suspension. This preparation is used in subsequent binding assays with [^3 H]Oxytocin.
Binding of 3,5-[^3 H]Oxytocin ([^3 H]OT) to its receptors is done in microtiter plates using [^3 H]OT, at various concentrations, in an assay buffer of 50.0 mM Tris.HCl, pH 7.4 and containing 5.0 mM MgCl2, and a mixture of protease inhibitors: BSA, 0.1 mg; aprotinin, 1.0 mg; 1,10-phenanthroline, 2.0 mg; trypsin, 10.0 mg; and PMSF, 0.3 mg per 100 ml of buffer solution. Non-specific binding is determined in the presence of 1.0 uM unlabeled OT. The binding reaction is terminated after 60 min., at 220° C., by rapid filtration through glass fiber filters using a Brandel® cell harvester (Bio-medical Research and Development Laboratories, Inc., Gaithersburg, Md.). Competition experiments are conducted at equilibrium using 1.0 nM [^3 H]OT and varying the concentration of the displacing agents. The concentrations of agent displacing 50% of [^3 H]OT at its sites (IC50) are calculated by a computer assisted LUNDON-2 program (LUNDON SOFTWARE INC., Ohio, USA).

[2] = target: T2, Rat Kidney Medullary V2 Receptors (Rattus norvegicus, UniProt Q00788); assay: biochemical; format: binding
T2 construct: Medullary tissues from rat kidneys are dissected out; from tissue; host or cells: rat kidney medulla membranes
Procedure: Binding Assay to Rat Kidney Medullary V2 Receptors
Medullary tissues from rat kidneys are dissected out, cut into small pieces and soaked in a […] sodium chloride solution containing 1.0 mM EDTA with many changes of the liquid phase, until the solution is clear of blood. The tissue is homogenized in a 0.25M sucrose solution containing 1.0 mM EDTA and 0.1 mM PMSF using a Potter-Elvehjem homogenizer with a teflon pestle. The homogenate is filtered through several layers (4 layers) of cheese cloth. The filtrate is rehomogenized using a dounce homogenizer, with a tight fitting pestle. The final homogenate is centrifuged at 1500×g for 15 min. The nuclear pellet is discarded and the supernatant fluid recentrifuged at 40,000×g for 30 min. The resulting pellet formed contains a dark inner part with the exterior, slightly pink. The pink outer part is suspended in a small amount of 50.0 mM Tris.HCl buffer, pH 7.4. The protein content is determined by the Lowry's method (Lowry et al, J. Biol. Chem., 1953). The membrane suspension is stored at -70° C., in 50.0 mM Tris.HCl, containing 0.2% inactivated BSA and 0.1 mM PMSF in aliquots of 1.0 ml containing 10.0 mg protein per ml of suspension until use in subsequent binding experiments.
(§1) For binding experiments, the following is added in μl volume to wells of a 96 well format of a microtiter plate: 100.0 μl of 100.0 mM Tris.HCl buffer containing 0.2% heat inactivated BSA, 10.0 mM MgCl2 and a mixture of protease inhibitors: leupeptin, 1.0 mg %; aprotinin, 1.0 mg %; 1,10-phenanthroline, 2.0 mg %; trypsin inhibitor, 10.0 mg % and 0.1 mM PMSF, 20.0 μl of [^3 H] Arginine^8, vasopressin (S.A. 75.0 Ci/mmole) at 0.8 nM and the reaction initiated by the addition of 80.0 μl of tissue membranes (200.0 μg tissue protein). The plates are left undisturbed on the bench top for 120 min. to reach equilibrium. Non-specific binding is assessed in the presence of 1.0 μM of unlabeled ligand, added in 20 μl volume. For test compounds, these are solubilized in 50% dimethylsulfoxide (DMSO) and added in 20.0 μl volume to a final incubation volume of 200 μl. Upon completion of binding, the content of each well is filtered off, using a Brandel® cell Harvester (Gaithersburg, Md.). The radioactivity trapped on the filter disk by the ligand-receptor complex is assessed by liquid scintillation counting in a Packard LS Counter, with an efficiency of 65% for tritium. The data are analyzed for IC50 values by the LUNDON-2 program for competition (LUNDON SOFTWARE, Ohio).

[3] = target: T3, Human V2 Vasopressin Receptor (Homo sapiens, UniProt P30518); assay: Binding to Membranes of Mouse Fibroblast Cell Line (LV-2) Transfected with the cDNA Expressing the Human V2 Vasopressin Receptor
T3 construct: expressed in transfected cells; host or cells: mouse fibroblast cell line LV-2
Procedure: Binding to Membranes of Mouse Fibroblast Cell Line (LV-2) Transfected with the cDNA Expressing the Human V2 Vasopressin Receptor Membrane Preparation
Flasks of 175 ml capacity, containing attached cells grown to confluence, are cleared of culture medium by aspiration. The flasks containing the attached cells are rinsed with 2×5 ml of phosphate buffered saline (PBS) and the liquid aspirated off each time. Finally, 5 ml of an enzyme free dissociation Hank's based solution (Specialty Media, Inc., Lafayette, N.J.) is added and the flasks are left undisturbed for 2 min. The content of all flasks is poured into a centrifuge tube and the cells pelleted at 300×g for 15 min. The Hank's based solution is aspirated off and the cells homogenized with a polytron at setting #6 for 10 sec in 10.0 mM Tris.HCl buffer, pH 7.4 containing 0.25M sucrose and 1.0 mM EDTA. The homogenate is centrifuged at 1500×g for 10 min to remove ghost membranes. The supernatant fluid is centrifuged at 100,000×g for 60 min to pellet the receptor protein. Upon completion, the pellet is resuspended in a small volume of 50.0 mM Tris.HCl buffer, pH 7.4. The protein content is determined by the Lowry method and the receptor membranes are suspended in 50.0 mM Tris.HCl buffer containing 0.1 mM phenylmethylsulfonylfluoride (PMSF) and 0.2% bovine serum albumin (BSA) to give 2.5 mg receptor protein per ml of suspension.
as §1, with “min” for “min.”, “Non specific” for “Non-specific”, “μm” for “μM”

[4] = target: Rat Hepatic V1 Receptors (Rattus norvegicus, UniProt P30560); assay: Binding Assay to Rat Hepatic V1 Receptors
Procedure: Binding Assay to Rat Hepatic V1 Receptors
Rat liver plasma membranes expressing the vasopressin V1 receptor subtypes are isolated by sucrose density gradient according to the method described by Lesko et al, (1973). These membranes are quickly suspended in 50.0 mM Tris.HCl buffer, pH 7.4, containing 0.2% bovine serum albumin (BSA) and 0.1 mM phenylmethylsulfonylfluoride (PMSF) and kept frozen at -70° C. until used in subsequent binding experiments. For binding experiments, the following is added to the wells of a ninety-six well format microtiter plate: 100 μl of 100.0 mM Tris.HCl buffer containing 10.0 mM MgCl2, 0.2% heat inactivated BSA and a mixture of protease inhibitors: leupeptin, 1.0 mg %; aprotinin, 1.0 mg %; 1,10-phenanthroline,2.0 mg %; trypsin inhibitor, 10.0 mg % and 0.1 mM PMSF, 20.0 μl of [phenylalanyl-3,4,5,-^3 H] vaso-pressin (S.A. 45.1 Ci/mmole) at 0.8 nM, and the reaction initiated by the addition of 80 μl of tissue membranes containing 20 μg of tissue protein. The plates are kept undisturbed on the bench top at room temperature for 120 min. to reach equilibrium. Non-specific samples are assayed in the presence of 0.1 μm of the unlabeled antagonist phenylalanylvasopressin, added in 20.0 μl volume. For test compounds, these are solubilized in 50% dimethylsulfoxide (DMSO) and added in 20.0 μl volume to a final incubation volume of 200 μl. Upon completion of binding, the content of each well is filtered off, using a Brandel® cell Harvester (Gaithersburg, Md.). The radioactivity trapped on the filter disk by the ligand-receptor complex is assessed by liquid scintillation counting in a Packard LS Counter, with an efficiency of 65% for tritium. The data are analyzed for IC50 values by the LUNDON-2 program for competition (LUNDON SOFTWARE, Ohio).

[5] = test system: Endogenous Arginine Vasopressin Antidiuretic (V2) Response in Conscious Rats; assay: Antagonism of Endogenous Arginine Vasopressin Antidiuretic (V2) Response in Conscious Rats (urine volume); format: in vivo, rat (Sprague-Dawley); conditions: 10 mg/kg rat p.o.; 4 hour collection
From the text: Effects on the Antagonism of Endogenous Arginine Vasopressin Antidiuretic (V2) Response in Conscious Rats with Free Access to Water Drinking Before but not During the Experiment:
Male or female normotensive Sprague-Dawley rats (Charles River Laboratories, Inc., Kingston, N.Y.) of 400-450 g body weight were supplied with Laboratory Rodent Feed #5001 (PMI Feeds, Inc., Richmond, Id.) and water ad libitum. On the day of test, rats were placed individually into metabolic cages equipped with stainless steel screens (to separate the feces from the urine) and funnels for collection of urine. Vehicle or reference agent was given at various oral doses. During the test, rats were not provided with water or food. Urine was collected for four hours after dosing of the test compound. At the end of four hours, urine volume was measured. Urinary osmolality was determined using a Fiske One-Ten Osmometer (Fiske Associates, Norwood, Mass. 02062) or an Advanced CRYOMATIC Osmometer, Model 3C2 (Advanced Instruments, Norwood, Mass.). Determinations of Na^+, K^+ and Cl^- ion were carried out using ion specific electrodes in a Beckman SYNCHRON EL-ISE Electrolyte System analyzer. In the following results, increased urine volume and decreased osmolality relative to AVP-control indicates activity.

T2 sequence (Q00788 whole entry): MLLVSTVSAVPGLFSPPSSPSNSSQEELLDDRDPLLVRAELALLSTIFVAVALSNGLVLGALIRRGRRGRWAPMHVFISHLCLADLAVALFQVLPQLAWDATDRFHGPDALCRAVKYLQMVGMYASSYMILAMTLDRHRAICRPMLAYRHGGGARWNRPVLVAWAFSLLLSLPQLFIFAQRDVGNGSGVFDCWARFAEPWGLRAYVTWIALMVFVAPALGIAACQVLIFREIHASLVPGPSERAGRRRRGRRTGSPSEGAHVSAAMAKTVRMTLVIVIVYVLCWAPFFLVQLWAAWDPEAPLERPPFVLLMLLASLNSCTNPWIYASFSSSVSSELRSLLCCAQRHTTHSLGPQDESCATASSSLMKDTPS
Chain of Rat Hepatic V1 Receptors (P30560 whole entry): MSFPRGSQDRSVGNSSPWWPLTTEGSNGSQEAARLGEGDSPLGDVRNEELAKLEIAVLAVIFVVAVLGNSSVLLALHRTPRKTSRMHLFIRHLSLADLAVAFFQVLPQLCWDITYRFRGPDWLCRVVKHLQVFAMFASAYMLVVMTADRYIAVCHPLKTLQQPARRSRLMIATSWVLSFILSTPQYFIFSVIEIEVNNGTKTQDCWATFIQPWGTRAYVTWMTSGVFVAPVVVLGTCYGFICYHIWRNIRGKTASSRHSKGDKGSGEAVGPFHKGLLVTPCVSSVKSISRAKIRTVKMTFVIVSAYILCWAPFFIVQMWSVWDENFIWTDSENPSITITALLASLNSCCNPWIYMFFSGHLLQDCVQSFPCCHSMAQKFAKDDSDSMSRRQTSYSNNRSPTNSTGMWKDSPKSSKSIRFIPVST
T3 sequence (P30518 whole entry): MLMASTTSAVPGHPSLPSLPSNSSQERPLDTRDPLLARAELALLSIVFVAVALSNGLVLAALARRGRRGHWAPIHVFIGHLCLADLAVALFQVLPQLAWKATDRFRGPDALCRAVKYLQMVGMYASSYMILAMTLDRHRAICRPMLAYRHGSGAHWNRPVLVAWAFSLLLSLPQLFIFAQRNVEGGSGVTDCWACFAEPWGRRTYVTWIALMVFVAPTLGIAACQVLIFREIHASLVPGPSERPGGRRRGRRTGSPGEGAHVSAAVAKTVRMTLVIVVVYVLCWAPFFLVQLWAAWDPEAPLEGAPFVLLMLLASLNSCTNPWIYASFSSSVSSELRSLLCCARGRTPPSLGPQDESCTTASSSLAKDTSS

| IC50 [1] | IC50 [2] | IC50 [4] | inhibition at 10 µM [1] | Compound | Urine Volume [5] | further results |
| --- | --- | --- | --- | --- | --- | --- |
| 710 nM | – | 80 nM | 95% | CC(C)(C)Nc1ccc(C(=O)N2Cc3cccn3Cc3ccccc32)cn1 [Example 348] | – | inhibition at 1 µM ([2]; at 1 μM): 43% |
| 205 nM | 34 nM | 15 nM | 95% | O=C(c1ccc(NC2CCc3ccccc32)nc1)N1Cc2cccn2Cc2ccccc21 (centres unmarked) [Example 350, 10-[[6-(1-Indanylamino)-3-pyridinyl)carbonyl]-10,11-dihydro-5H-pyrrolo[2,1-c][1,4]benzodiazepine] | – | – |
| 105 nM | 59 nM | 88 nM | – | O=C(c1ccc(NCc2ccccc2Br)nc1)N1Cc2cccn2Cc2ccccc21 [Example 352] | – | inhibition at 1.25 µM ([1]; dose 1.25 μM): 96% |

The remaining lines, values behind:

| Compound | IC50 [1] | IC50 [2] | IC50 [4] | inhibition at 10 µM [1] | Urine Volume [5] | further results |
| --- | --- | --- | --- | --- | --- | --- |
| O=C(Nc1ccc(C(=O)N2Cc3cccn3Cc3ccccc32)cn1)c1ccc(F)cc1Cl [Example 9] | 170 nM | 1.1 nM | 6 nM | – | – | inhibition at 2.5 µM ([1]; dose 2.5 μM): 96%; IC50 ([3]; ** LV-2 cells transfected with human V2 receptor cDNA, read-out: V2 IC50 (**human V2 receptor)): 0.9 nM |
| CC(C)(Oc1ccc(Cl)cc1)C(=O)Nc1ccc(C(=O)N2Cc3cccn3Cc3ccccc32)cc1 [Example 347, N-[4-(5H-Pyrrolo[2,1-c][1,4]benzodiazepin-10(11H)-ylcarbonyl)phenyl]-2-methyl-2-(4-chlorophenyloxy)propionamide] | – | 420 nM | 180 nM | 86% | – | – |
| CN(C)Cc1ccc2n1Cc1ccccc1N(C(=O)c1ccc(NC(=O)c3ccccc3-c3ccccc3)cc1O)C2 [Example 372] | – | – | – | – | 30.3 ml/4 hrs | IC50 ([3]; LV-2 cells transfected with human V2 receptor cDNA, Table 5, read-out: Vasopressin Binding Human V2 Receptor): 15.9 nM |
| O=C(Nc1ccc(C(=O)N2Cc3ccc(CN4CCC(N5CCCCC5)CC4)n3Cc3ccccc32)c(Cl)c1)c1ccccc1-c1ccccc1 [Example 373, [4-(3-[1,4]Bipiperidinyl-1'-ylmethyl-5H,11H-pyrrolo[2,1-c][1,4]benzodiazepine-10-carbonyl)-3-chloro-phenyl]-biphenyl-2-carboxylic acid amide] | – | – | – | – | 15.6 ml/4 hrs | – |
| O=C(Nc1ccc(C(=O)N2Cc3ccc(CNC(CO)(CO)CO)n3Cc3ccccc32)c(Cl)c1)c1ccccc1-c1ccccc1 [Example 374, (3-Chloro-4-{3-[(2-hydroxy-1,1-bis-hydroxymethylethylamino)-methyl]-5H,11H-pyrrolo[2,1-c][1,4]benzodiazepine-10-carbonyl}-phenyl)-biphenyl-2-carboxylic acid amide] | – | – | – | – | 16.5 ml/4 hrs | – |
| CN(C)CCN(C)Cc1ccc2n1Cc1ccccc1N(C(=O)c1ccc(NC(=O)c3ccccc3-c3ccccc3)cc1Cl)C2 [Example 375] | – | – | – | – | 44.2 ml/4 hrs | – |
| CN(C)C1CCN(Cc2ccc3n2Cc2ccccc2N(C(=O)c2ccc(NC(=O)c4ccccc4-c4ccccc4)cc2Cl)C3)CC1 [Example 376, {3-chloro-4-[3-(4-dimethylamino-piperidine-1-ylmethyl)-5H,11H-pyrrolo[2,1-c][1,4]benzodiazepine-10-carbonyl]-phenyl}-biphenyl-2-carboxylic acid amide] | – | – | – | – | 23.8 ml/4 hrs | – |
